Here are results for 1 compound from PMC7946776 (Journal of immunology (Baltimore, Md. : 1950), 2021).

This experiment deals with mouse Asah2 (Mus musculus, UniProt Q9JHE3). The experiment in a line: fluorogenic ceramidase activity assay. It is filed as biochemical.
Chain of mouse Asah2 (Q9JHE3 whole entry): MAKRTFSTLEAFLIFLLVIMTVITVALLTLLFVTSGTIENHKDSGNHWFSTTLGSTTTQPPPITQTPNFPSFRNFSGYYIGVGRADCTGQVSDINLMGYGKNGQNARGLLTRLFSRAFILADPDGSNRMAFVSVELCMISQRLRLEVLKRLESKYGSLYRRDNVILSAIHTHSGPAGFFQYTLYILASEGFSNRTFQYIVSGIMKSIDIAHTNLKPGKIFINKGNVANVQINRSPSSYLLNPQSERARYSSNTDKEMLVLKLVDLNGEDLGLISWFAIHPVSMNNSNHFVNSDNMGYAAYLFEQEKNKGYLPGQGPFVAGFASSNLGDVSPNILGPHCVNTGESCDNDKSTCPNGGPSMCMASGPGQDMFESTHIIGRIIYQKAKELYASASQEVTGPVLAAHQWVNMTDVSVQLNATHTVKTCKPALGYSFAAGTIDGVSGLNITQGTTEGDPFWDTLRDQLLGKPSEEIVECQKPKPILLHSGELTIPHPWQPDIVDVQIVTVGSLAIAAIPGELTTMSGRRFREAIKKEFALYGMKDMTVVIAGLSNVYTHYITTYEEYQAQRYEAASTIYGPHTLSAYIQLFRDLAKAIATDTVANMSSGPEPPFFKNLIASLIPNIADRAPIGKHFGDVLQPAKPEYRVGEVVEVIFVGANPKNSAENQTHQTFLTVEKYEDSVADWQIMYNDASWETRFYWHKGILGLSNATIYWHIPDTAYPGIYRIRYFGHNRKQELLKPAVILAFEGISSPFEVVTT

Turning to `O=c1nc(Nc2cccc(Cl)c2)oc2cc(Cl)oc(=O)c12` [NC06, 7-chloro-2-(3-chloroanilino)pyrano[3,4-e][1,3]oxazine-4,5-dione], the midpoint of inhibition, the IC50, lay at 30.2 µM.

For orientation: IC50 means the concentration at which inhibition is half-maximal. The low end stands for inhibition by little substance, the high end for a need for much substance.
